Molecular target: 5-hydroxytryptamine receptor 7 (Homo sapiens) (UniProt P34969)
Assay: Binding affinity to human 5HT7 receptor expressed in CHO cells
Format: cell-based

5-hydroxytryptamine receptor 7 (Homo sapiens), sequence (P34969 whole entry): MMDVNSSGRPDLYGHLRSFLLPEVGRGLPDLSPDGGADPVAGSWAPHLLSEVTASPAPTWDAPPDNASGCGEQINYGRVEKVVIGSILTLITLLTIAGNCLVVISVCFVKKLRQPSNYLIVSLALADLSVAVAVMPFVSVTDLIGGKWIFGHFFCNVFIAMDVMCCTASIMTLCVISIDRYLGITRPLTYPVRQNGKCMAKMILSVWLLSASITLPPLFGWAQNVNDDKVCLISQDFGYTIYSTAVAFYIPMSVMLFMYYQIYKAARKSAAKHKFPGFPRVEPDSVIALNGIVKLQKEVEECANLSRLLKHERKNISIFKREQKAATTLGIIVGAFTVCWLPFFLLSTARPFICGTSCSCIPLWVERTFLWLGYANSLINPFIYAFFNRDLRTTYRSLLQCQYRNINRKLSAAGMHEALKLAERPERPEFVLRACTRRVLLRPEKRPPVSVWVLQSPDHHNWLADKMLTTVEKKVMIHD

`COc1ccccc1N1CCN(CCCNS(=O)(=O)c2ccc(F)cc2)CC1` was tested, and the pKb was 7.26.
`O=C(OC1CCN(CC[C@H]2CCCN2S(=O)(=O)c2ccccc2)CC1)c1ccc(F)cc1` showed a pKb of 7.1.

— ChEMBL document CHEMBL1155537, “Looking for a 5-HT7 radiotracer for positron emission tomography” (Bioorg Med Chem Lett, 2010)
